# Counter-ions that a name gives are not always drawn.
# What was measured:
# [1] = target: Epithelial Cell Kinase (ECK) (Homo sapiens, UniProt P29317); test: Inhibition of Epithelial Cell Kinase (ECK); format: biochemical
# Procedure: In this standard pharmacological test procedure, a biotinylated peptide substrate is first immobilized on neutravidin-coated microtiter plates. The test drug, the Epithelial Cell Kinase (ECK), Mg^++, sodium vanadate (a protein tyrosine phosphatase inhibitor), and an appropriate buffer to maintain pH (7.2) are then added to the immobilized substrate-containing microtiter wells. ATP is then added to initiate phosphorylation. After incubation, the assay plates are washed with a suitable buffer leaving behind phosphorylated peptide which is exposed to horse radish peroxidase (HRP)-conjugated anti-phosphotyrosine monoclonal antibody. The antibody-treated plates are washed again and the HRP activity in individual wells is quantified as a reflection of degree of substrate phosphorylation. […] Multiple entries for a given compound indication it was tested multiple times.
# [2] = target: T1, recombinant human MEK 1 (MAPKK) and human ERK2 (MAPK) (Homo sapiens, UniProt P28482+Q02750); test: Mitogen Activated Protein Kinase (MAPK) coupled assay (Mek-Erk); format: biochemical; details: separate entries = repeat tests
# T1 construct: The recombinant enzymes used were prepared as GST fusion proteins of human ERK 2 and human MEK 1
# Procedure: To evaluate inhibitors of the MAP (mitogen activated protein) kinase a two component coupled standard pharmacological test procedure, which measures phosphorylation of a serine/threonine residue in an appropriate sequence in the substrate in the presence and absence of a putative inhibitor, was used. Recombinant human MEK 1 (MAPKK) was first used to activate recombinant human ERK2 (MAPK) and the activated MAPK (ERK) was incubated with substrate (MBP peptide or MYC peptide) in the presence of ATP, Mg^+2 and radiolabeled ^33P ATP. The phosphorylated peptide was captured on a P 81 phosphocellulose filter (paper filter or embedded in microtiter plate) washed and counted by scintillation methods. […]
# The reaction was run as follows in 50 mM Tris kinase buffer, pH 7.4 in a reaction volume of 50 ul. […] The filters or MTP were briefly air dried before addition of scintillant and samples were counted in the appropriate scintillation counter set up for reading ^33P isotope. […]
# The raw data was captured as cpm. […] Mean cpm data was tabulated by group and % inhibition by a test compound was calculated as (corrected cpm control-corrected. cpm sample/control) X 100=% inhibition. […] The results obtained for representative compounds of this invention are listed in TABLE 2 where there may be separate entries for the same compound; this is an indication that the compound was evaluated more than one time.
# SW620 = test: Inhibition of cancer cell growth as measured by cell number, SW620; format: cell-based, Human; details: 48 hours exposure, Sulforhodamine B
# Procedure: (§1) Human tumor cell lines were plated in 96-well plates (250 μl/well, 1-6×10^4 cells/ml) in RPMI 1640 medium, containing 5% FBS (Fetal Bovine Serum). […] After 48 hours exposure to test compounds, cells were fixed with trichloroacetic acid, and stained with Sulforhodamine B. After washing with trichloroacetic acid, bound dye was solubilized in 10 mM Tris base and optical density was determined using plate reader. Under conditions of the assay the optical density is proportional to the number of cells in the well. […] The test procedure is described in details by Philip Skehan et. al, J.Natl. Canc. Inst., 82, 1107-1112 (1990). […] Information about some of the cell lines used in these test procedures is available from the American Type Tissue Collection: Cell Lines and Hybridomas, 1994 Reference Guide, 8th Edition.
# 3T3 = test: Inhibition of cell growth as measured by cell number, 3T3; format: cell-based; details: 48 hours exposure, Sulforhodamine B
# Procedure: as §1
# A431 = test: Inhibition of cancer cell growth as measured by cell number, A431; format: cell-based, Human; details: 48 hours exposure, Sulforhodamine B
# Procedure: as §1
# MDAMB435 = test: Inhibition of cancer cell growth as measured by cell number, MDAMB435; format: cell-based, Human; details: 48 hours exposure, Sulforhodamine B
# Procedure: as §1
# Her2/3T3 = test: Inhibition of cell growth as measured by cell number, Her2/3T3; format: cell-based; details: 48 hours exposure, Sulforhodamine B
# Procedure: as §1
# SKBR3 = test: Inhibition of cancer cell growth as measured by cell number, SKBR3; format: cell-based, Human; details: 48 hours exposure, Sulforhodamine B
# Procedure: as §1
# [3] = system: Human Epidermoid Tumors (A431); test: In vivo inhibition of the growth of human epidermoid tumors (A431) in mice; set-up: species or system BALB/c nu/nu female mice; details: for S/T = # of Survivors/# of Treated: Day +28 post tumor staging
# Procedure: Human epidernoid carcinoma cells A-431 (American Type Culture Collection, Rockville, Md. #CRL-155) were grown in vitro as described above. A unit of 5×10^6 cells were injected SC into mice. […] Control animals received no drug. […] The % T/C (Tumor/Control) is determined by dividing the relative tumor growth of the treated group by the relative tumor growth of the placebo group and multiplying by 100.
# Epithelial Cell Kinase (ECK), sequence (P29317 24-976, species assumed): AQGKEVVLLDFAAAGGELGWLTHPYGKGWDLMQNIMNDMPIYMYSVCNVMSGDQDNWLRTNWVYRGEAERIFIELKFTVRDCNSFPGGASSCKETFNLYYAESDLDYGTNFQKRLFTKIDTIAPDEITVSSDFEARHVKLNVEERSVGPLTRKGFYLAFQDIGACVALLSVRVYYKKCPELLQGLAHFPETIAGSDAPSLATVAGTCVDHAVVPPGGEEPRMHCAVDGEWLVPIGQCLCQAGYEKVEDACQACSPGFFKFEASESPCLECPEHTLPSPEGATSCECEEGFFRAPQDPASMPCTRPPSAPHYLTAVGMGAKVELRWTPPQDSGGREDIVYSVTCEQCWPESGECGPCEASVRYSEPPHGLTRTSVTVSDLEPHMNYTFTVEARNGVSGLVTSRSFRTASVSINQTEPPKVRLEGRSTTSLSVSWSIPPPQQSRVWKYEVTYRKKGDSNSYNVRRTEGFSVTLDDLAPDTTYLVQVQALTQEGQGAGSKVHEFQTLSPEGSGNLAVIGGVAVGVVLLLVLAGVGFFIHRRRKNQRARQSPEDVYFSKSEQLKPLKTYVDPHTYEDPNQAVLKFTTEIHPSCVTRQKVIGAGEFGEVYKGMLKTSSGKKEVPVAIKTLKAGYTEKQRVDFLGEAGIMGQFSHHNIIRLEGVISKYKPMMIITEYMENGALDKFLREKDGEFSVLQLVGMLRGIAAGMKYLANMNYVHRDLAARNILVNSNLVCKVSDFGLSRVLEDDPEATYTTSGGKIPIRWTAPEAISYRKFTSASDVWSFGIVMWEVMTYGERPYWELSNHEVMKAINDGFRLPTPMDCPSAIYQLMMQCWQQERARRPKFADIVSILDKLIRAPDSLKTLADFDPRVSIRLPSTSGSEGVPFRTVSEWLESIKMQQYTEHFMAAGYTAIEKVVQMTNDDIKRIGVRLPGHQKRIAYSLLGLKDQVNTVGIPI
# T1 sequence (Q02750 whole entry, the tested form may be a part): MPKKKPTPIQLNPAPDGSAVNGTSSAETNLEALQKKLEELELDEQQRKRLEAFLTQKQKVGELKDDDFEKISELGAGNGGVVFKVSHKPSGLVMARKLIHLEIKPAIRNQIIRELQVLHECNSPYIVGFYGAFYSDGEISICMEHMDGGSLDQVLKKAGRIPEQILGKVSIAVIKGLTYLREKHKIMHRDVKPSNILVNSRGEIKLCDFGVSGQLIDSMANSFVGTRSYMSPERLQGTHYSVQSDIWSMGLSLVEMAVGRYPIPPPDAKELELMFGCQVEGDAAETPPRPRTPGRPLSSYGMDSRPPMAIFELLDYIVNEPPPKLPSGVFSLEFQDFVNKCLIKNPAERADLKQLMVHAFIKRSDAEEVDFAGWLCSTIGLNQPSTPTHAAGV
# T1 sequence (P28482 2-360): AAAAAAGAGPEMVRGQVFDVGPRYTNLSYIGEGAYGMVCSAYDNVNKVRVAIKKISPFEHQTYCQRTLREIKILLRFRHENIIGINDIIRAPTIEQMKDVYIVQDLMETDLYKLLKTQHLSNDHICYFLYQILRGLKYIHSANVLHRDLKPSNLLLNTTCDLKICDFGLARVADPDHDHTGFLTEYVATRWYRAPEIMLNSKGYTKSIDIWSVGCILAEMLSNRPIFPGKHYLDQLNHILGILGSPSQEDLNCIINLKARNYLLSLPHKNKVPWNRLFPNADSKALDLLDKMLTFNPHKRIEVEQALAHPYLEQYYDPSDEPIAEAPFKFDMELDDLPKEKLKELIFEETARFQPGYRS
smiles,measurement,setting,value
"COC[C@@H]1CCCN1CC#CC(=O)Nc1ccc2ncc(C#N)c(Nc3cccc(Br)c3)c2c1 [Example 79, 4-((2S)-2-Methoxymethylpyrrolidin-1-yl)but-2-ynoic Acid[4-(3-bromophenylamino)-3-cyanoquinolin-6-yl]amide]",IC50,[1],> 38.6 µM
same,IC50,[2],80 µM
"COC[C@@H]1CCCN1CC=CC(=O)Nc1cc2c(Nc3ccc(F)c(Cl)c3)c(C#N)cnc2cc1OC.Cl.Cl [Example 90, (S)-4-(2-Methoxymethyl-pyrrolidin-1-yl)-but-2-enoic Acid[4-(3-chloro-4-fluoro-phenylamino)-3-cyano-7-methoxy-quinolin-6-yl]-amide dihydrochloride]",IC50 cell growth SW620,SW620,1.24 µg/mL
same,IC50 cell growth 3T3,3T3,2.1 µg/mL
same,IC50 cell growth A431,A431,0.234 µg/mL
same,IC50 cell growth MDAMB435,MDAMB435,1.74 µg/mL
same,IC50 cell growth Her2/3T3,Her2/3T3,0.329 µg/mL
same,IC50 cell growth SKBR3,SKBR3,0.148 µg/mL
"C=CCN(C)CC#CC(=O)Nc1ccc2ncc(C#N)c(Nc3cccc(Br)c3)c2c1 [Example 77, N-[4-[(3-Bromophenyl)amino]-3-cyano-6-quinolinyl]-4-(N-allyl-N-methylamino)-2-butynamide]",melting point,,133 to 135 °C
"COCCN(C)CC=CC(=O)Nc1cc2c(Nc3ccc(F)c(Cl)c3)c(C#N)cnc2cc1OC [Example 89, 4-[(2-Methoxy-ethyl)-methyl-amino]-but-2-enoic Acid[4-(3-chloro-4-fluoro-phenylamino)-3-cyano-7-methoxy-quinolin-6-yl]-amide Dihydrochloride]",S/T = # of Survivors/# of Treated,"[3]; Table 5, 10 mg/kg/dose PO days 1 through 10",4/5
same,S/T = # of Survivors/# of Treated,"[3]; Table 5, 40 mg/kg/dose PO days 1 through 10",5/5
same,inhibition of tumor growth in vivo (in words),[3]; given orally at 40 mg/Kg and 10 mg/Kg,effective inhibitor of tumor growth in vivo
"CCOc1c(Nc2ccc3ncc(C#N)c(Nc4cccc(Br)c4)c3c2)c(=O)c1=O [Example 85, 4-(3-Bromo-phenylamino)-6-(2-ethoxy-3,4-dioxo-cyclobut-1-enylamino)-quinoline-3-carbonitrile]",IC50,[1],> 21.6 µM
"COCCN(CC#CC(=O)Nc1ccc2ncc(C#N)c(Nc3cccc(Br)c3)c2c1)CCOC [Example 75, N-[4-[(3-Bromophenyl)amino]-3-cyano-6-quinolinyl]-4-(bis-(2-methoxyethyl)amino)-2-butynamide]",IC50,[1],> 37.3 µM
same,melting point,,98 to 101 °C
"COc1cc2ncc(C#N)c(Nc3ccc(F)c(Cl)c3)c2cc1NC(=O)C=CCN1CCC2(CC1)OCCO2 [Example 92, 4-(1,4-Dioxa-8-aza-spiro[4.5]dec-8-yl)-but-2-enoic Acid[4-(3-chloro-4-fluoro-phenylamino)-3-cyano-7-methoxy-quinolin-6-yl]-amide]",IC50 cell growth SW620,SW620,2.51 µg/mL
same,IC50 cell growth 3T3,3T3,2.79 µg/mL
same,IC50 cell growth A431,A431,0.283 µg/mL
same,S/T = # of Survivors/# of Treated,"[3]; Table 4, 10 mg/kg/dose PO days 1 through 10",5/5
same,S/T = # of Survivors/# of Treated,"[3]; Table 4, 40 mg/kg/dose PO days 1 through 10",5/5
same,inhibition of tumor growth in vivo (in words),[3]; given orally at 40 mg/Kg,effective inhibitor of tumor growth in vivo
same,IC50 cell growth MDAMB435,MDAMB435,3.32 µg/mL
same,IC50 cell growth Her2/3T3,Her2/3T3,0.35 µg/mL
same,IC50 cell growth SKBR3,SKBR3,0.188 µg/mL
"COCCN(C)CC#CC(=O)Nc1ccc2ncc(C#N)c(Nc3cccc(Br)c3)c2c1 [Example 76, N-[4-[(3-Bromophenyl)amino]-3-cyano-6-quinolinyl]-4-(N-methoxyethyl-N-methylamino)-2-butynamide]",IC50,[1],> 40.6 µM
same,melting point,,95 °C (dec.)
COc1cc2ncc(C#N)c(Nc3ccc(F)c(Cl)c3)c2cc1N1CC1,melting point,,197 to 199 °C

# Source: patent publication USRE42376E1, “Substituted 3-cyanoquinolines” (Wyeth Holdings Corporation, priority 1998, dated 2011)
